Results: PubChem BioAssay AID1996
In brackets after ≈: the same amount, converted by molar mass.

details: buffer; pH 7.4; 200.0 µM

solubility kinetic [µg/mL] | SMILES
> 53.8 | CC1CC(C)CN(C(=O)COC(=O)c2ccc(N3CCCC3=O)cc2)C1 (centres undefined)
> 71 | COc1ccc(C(CNC(=O)c2ccc(S(=O)(=O)N3CC(C)CC(C)C3)cc2)N(C)C)cc1 (centres undefined)
> 40.2 | CCCN1C(=O)C2(OCCO2)c2cc(Cl)ccc21
> 49 | COc1ccc(C)cc1N(CC(=O)N1CCCC1)S(C)(=O)=O
2.9 (≈ 9.28 µM) | O=C(CNC(=O)c1ccccc1F)Nc1ccc2c(c1)CCC2
0.8 (≈ 2.64 µM) | Cc1c(Cl)cccc1NC(=O)c1cc(-c2ccco2)on1
36.1 (≈ 134 µM) | CC(C)(C)c1ccc(NC(=O)c2cc[n+]([O-])cc2)cc1
27.9 (≈ 75.1 µM) | COCCNC(=S)N(CCc1c(C)[nH]c2ccccc12)Cc1ccco1
15.4 (≈ 49.3 µM) | COc1ccccc1Nc1ncnc2c1c(C)c(C)n2CCO
> 41 | CCc1ccc2c(CN3CCOCC3)cc(=O)oc2c1
> 46.9 | Cc1ccc(NC(=O)C2CCN(C(=O)c3ccco3)CC2)cc1
> 39.1 | CCC(=O)Nc1ccc(NCc2cccs2)cc1
42.2 (≈ 130 µM) | Nc1cc(S(=O)(=O)N2CCOCC2)ccc1N1CCCCC1
> 48.1 | Cc1csc(=O)n1CC(=O)OCC(=O)NCc1ccccc1
< 0.3 | O=C(NC(=S)NCc1ccccc1)c1cccc(Cl)c1
3.3 (≈ 8.61 µM) | COc1ccc2nc(N(Cc3ccccc3)C(=O)CCNC(C)=O)sc2c1
> 40.4 | COCCNC(=S)Nc1ccc([N+](=O)[O-])cc1C
36.8 (≈ 129 µM) | CCN1CCN(S(=O)(=O)c2ccc(OC)cc2)CC1
> 37.1 | Cn1nccc1NC(=O)c1nccnc1C(=O)O

solubility kinetic [µg/mL] | SMILES
34.4 (≈ 105 µM) | CC(CCc1ccccc1)NC(=O)CN(C)Cc1ccc(F)cc1 (centres undefined)
47.5 (≈ 138 µM) | Cc1cc(C(=O)N2CCN(C(=O)c3ccco3)CC2)ccc1[N+](=O)[O-]
3 (≈ 11.1 µM) | Cc1cc(=O)oc2cc(NC(=O)C3CCCC3)ccc12
> 45.8 | Cc1ccc(S(=O)(=O)NC(=O)Nc2ccc(C)cn2)cc1
> 35.6 | O=C1C=C(N2CCOCC2)C2(CCCCC2)O1
> 51.2 | CCCOc1ccc(C(CC(=O)O)NC(=O)Cc2ccccc2)cc1 (centres undefined)
46 (≈ 132 µM) | Cc1ccc(S(=O)(=O)N2CCN(C(=O)c3ccco3)CC2)cc1C
> 49 | CC(c1ccccc1)N1CC(C(=O)Nc2ccc(F)cc2)CC1=O (centres undefined)
1.7 (≈ 5.09 µM) | O=C(Nc1ccccn1)c1sc2cc([N+](=O)[O-])ccc2c1Cl
13.7 (≈ 55.2 µM) | Cc1ccc(NCc2ccc([N+](=O)[O-])s2)cc1
0.3 (≈ 0.922 µM) | Cc1cc(C)cc(NC(=O)c2sc3nc(C)cc(C)c3c2N)c1
< 0.6 | O=C(Nc1ccc2c(c1)C(=O)OC2)c1ccc(Cl)cc1
6.7 (≈ 15.7 µM) | O=C(COC(=O)c1ccco1)Nc1cc(S(=O)(=O)N2CCCCC2)ccc1Cl
> 44.2 | COc1ccc(/C=N/OCC(=O)NCC(C)C)c(OC)c1
< 0.2 | Cc1cccc(NC(=O)Nc2ccc(OCc3ccccc3)cc2)n1
> 70.3 | O=C(COC(=O)c1cc(S(=O)(=O)N2CCOCC2)ccc1F)NCCc1ccc(F)cc1
27.3 (≈ 88.3 µM) | CC(NC(=O)c1cc2ccccc2oc1=O)c1ccc(O)cc1 (centres undefined)
> 52.1 | CCCn1c(SCC(=O)N2CCOCC2)nnc1-c1ccncc1
> 41.3 | O=C(C1CC1)N1CCN(c2ccc([N+](=O)[O-])cc2)CC1

solubility kinetic [µg/mL] | SMILES
42.2 (≈ 142 µM) | COc1ccc2[nH]cc(CCn3ccc(=O)c(C)c3C)c2c1
> 36.8 | COc1ccccc1NC(=O)c1cc(C)oc1C
< 0.7 | CC(=O)c1cc2c(cc1NC(=O)c1ccc(Cl)cc1)OCCO2
> 53.3 | CCOc1ccc(NC(=O)CC(Cc2cc(C)cc(C)c2)C(=O)O)cc1 (centres undefined)
2.3 (≈ 7.03 µM) | CCCCn1c(=O)[nH]c2nc3cc(NC(C)=O)ccc3nc2c1=O
5.7 (≈ 17.7 µM) | COC(=O)c1sccc1NC(=O)Nc1cccc([N+](=O)[O-])c1
> 40 | COc1ccc(/C(C)=N/NC2=NCCN2)cc1Cl
> 53.9 | COC(=O)c1ccc(N2CCN(C)CC2)c(NC(=O)c2cccs2)c1
> 49.7 | COC(=O)c1[nH]c2cc(C)ccc2c1NC(=O)CN1CCOCC1
4.8 (≈ 9.42 µM) | O=C(Nc1cc(S(=O)(=O)N2CCOCC2)ccc1O)c1ccc(S(=O)(=O)N2CCCCC2)cc1
2.8 (≈ 7.75 µM) | Cc1ccc(NC(=O)COc2ccc(C(=O)c3ccccc3)cc2)c(O)c1
2.2 (≈ 5.19 µM) | CCOc1ccc(NC(=O)c2ccccc2NC(=O)CNC2CCCC(C)C2C)cc1 (centres undefined)
> 50 | O=C(COC(=O)C1C2CC3OC(=O)C1C3C2)Nc1ccc(F)cc1 (centres undefined)
2.5 (≈ 8.67 µM) | CC(NC(=O)C(=O)NCc1cccs1)c1ccccc1 (centres undefined)
> 42.1 | O=S(=O)(c1ccc2c(c1)CCCC2)N1CCNCC1
1.1 (≈ 4.23 µM) | COC(=O)c1ccccc1NC(=O)c1cc(C)no1
> 48.9 | CN(C)C(CNC(=O)c1ccc(C(F)(F)F)cc1)c1ccco1 (centres undefined)
37 (≈ 147 µM) | COc1ccccc1Cn1c(C)nc2ccccc21

SMILES | solubility kinetic [µg/mL]
COC1CCCCC1NCCc1ccccc1.O=C(O)C(=O)O (centres undefined) | > 48.5
COc1ccc(N2CC2c2ccncc2)cc1 (centres undefined) | > 33.9
COc1ccc(OC)c(/C=N/OC(=O)Nc2ccc(Cl)cc2)c1 | 8.3 (≈ 24.8 µM)
